Data taken from patent US20060223827A1, “Bioreductively activated stilbene prodrugs” (Siemens Aktiengesellschaft, priority 2003, published 2006).
Each block holds one compound with its values, some of them ahead of it.

Assays:
[1] = Radiolysis (steady state): release of combretastatin A4 after one-electron reduction; type: physicochemical; conditions: isopropanol/water 50:50, N2O-saturated, 60Co source 3.9 Gy min^−1, HPLC
Method: In the hypoxic environments of solid tumours, prodrugs can be reduced by one-electron processes that are inhibited in the normoxic environments of normal tissues.
Compounds were dissolved in an isopropanol/water mixture (50:50) at a concentration of 50 μM or below. Solutions, in gas-tight syringes, were saturated with nitrous oxide before irradiation in a ^60Co source at a dose rate of 3.9 Gy min^−1 (as determined by Fricke dosimetry: H. Fricke and E. J. Hart, “Chemical Dosimetry” in Radiation Dosimetry Vol. 2 (F. H. Attrix and W. C. Roesch. Eds.), pp 167-239. Academic Press New York, 1966.). Solutions were analysed for released drug by HPLC. The radiation chemical yields (G-values) of combretastatin A4 release obtained in this assay for selected example compounds are shown in Table 1.

SMILES: COc1ccc(/C=C\c2cc(OC)c(OC)c(OC)c2)cc1OCc1ccc([N+](=O)[O-])s1 [Example 1, 1-(4-Methoxy-3-(5-nitrothien-2-yl)methoxy)phenyl-2-(3,4,5-trimethoxy)phenyl-Z-ethene]
melting point: 88 to 90 °C | G (radiation chemical yield of combretastatin A4 release) [1]: 0.23 µmol/J

SMILES: COC1=CC(=O)c2c(c(COc3cc(/C=C\c4cc(OC)c(OC)c(OC)c4)ccc3OC)c(C)n2C)C1=O [Example 4, 5-Methoxy-3-((3,4,4′,5-tetramethoxy-(Z)-stilbene-3′-yl)oxy)methyl-1,2-dimethylindole-4,7-dione]
melting point: 192 to 194 °C | G (radiation chemical yield of combretastatin A4 release) [1]: 0.44 µmol/J

SMILES: COc1ccc(/C=C\c2cc(OC)c(OC)c(OC)c2)cc1OC(C)c1ccc([N+](=O)[O-])s1 (stereo not drawn) [Example 2, 1-(4-Methoxy-3-(1-(5-nitrothien-2-yl)ethoxy))phenyl-2-(3,4,5-trimethoxy)phenyl-Z-ethene]
G (radiation chemical yield of combretastatin A4 release) [1]: 0.33 µmol/J

G (radiation chemical yield of combretastatin A4 release) [1]: 0.34 µmol/J
SMILES: COc1ccc(/C=C\c2cc(OC)c(OC)c(OC)c2)cc1OCc1c2c(n(C)c1C)C(=O)C=C(N1CCN(C)CC1)C2=O [Example 5, 3-((3,4,4′,5-Tetramethoxy-(Z)-stilbene-3′-yl)oxy)methyl-1,2-dimethyl-5-(4 methylpiperazin-1-yl)indole-4,7-dione]
